Data as given in ChEMBL document CHEMBL4706632, “Development of Potential Antitumor Agents from the Scaffolds of Plant-Derived Terpenoid Lactones” (J Med Chem, 2020).

Assays:
[1] = tested on: MDA-MB-435; test: Antiproliferative activity against human MDA-MB-435 cells incubated for 48 hrs by [3H]-thymidine incorporation assay; format: functional, cell-based
[2] = Antiproliferative activity against human Panc-28 cells incubated for 72 hrs by MTT assay; format: functional, cell-based; conditions: MDA-Panc-28, 72 h
[3] = tested on: MCF7; test: Antiproliferative activity against human MCF7 cells incubated for 48 hrs by [3H]-thymidine incorporation assay; format: functional, cell-based
[4] = tested on: PANC-1; test: Cytotoxicity against human Panc-1 cells incubated for 72 hrs by sulphorhodamine B assay; format: functional, cell-based; conditions: PANC-1, 72 h
[5] = tested on: MDA-MB-231; test: Cytotoxicity against human MDA-MB-231 cells incubated for 72 hrs by MTT assay; format: functional, cell-based; conditions: MDA-MB-231, 72 h
[6] = tested on: SW1990; test: Antiproliferative activity against human SW1990 incubated for 72 hrs by sulphorhodamine B assay; format: functional, cell-based; conditions: SW1990, 72 h
[7] = tested on: MCF7; test: Cytotoxicity against human MCF-7 cells incubated for 72 hrs by MTT assay; format: functional, cell-based; conditions: MCF7, 72 h
[8] = tested on: HCT-116; test: Antiproliferative activity against human HCT-116 cells incubated for 72 hrs by WST-1 assay; format: functional, cell-based; conditions: HCT-116, 72 h
[9] = tested on: A-431; test: Antiproliferative activity against human A-431 cells incubated for 72 hrs by Sulforhodamine B assay; format: functional, cell-based; conditions: A-431, 72 h
[10] = Antiproliferative activity against human U87-MG cells incubated for 72 hrs by Sulforhodamine B assay; format: functional, cell-based; conditions: U-87 MG
[11] = tested on: A549; test: Antiproliferative activity against human A549 cells incubated for 72 hrs by Sulforhodamine B assay; format: functional, cell-based; conditions: A549, 72 h
[12] = Inhibition of PAFR in New Zealand rabbit platelets assessed as reduction in PAF-induced platelet aggregation measured within 5 mins by aggregometry analysis; format: tissue-based; conditions: Oryctolagus cuniculus
[13] = Inhibition of [3H]PAF-acether binding to PAFR in rabbit platelet plasma membranes incubated for 1 hr; format: cell membranes, Oryctolagus cuniculus, Cell membrane
[14] = tested on: MCF7; test: Cytotoxicity against human MCF7 cells incubated for 48 hrs by alamarblue reagent based assay; format: functional, cell-based; conditions: MCF7, 48 h
[15] = tested on: HepG2; test: Cytotoxicity against human HepG2 cells incubated for 48 hrs by alamarblue reagent based assay; format: functional, cell-based; conditions: HepG2, 48 h
[16] = tested on: HCT-15; test: Cytotoxicity against human HCT-15 cells incubated for 48 hrs by MTT assay; format: functional, cell-based; conditions: HCT-15, 48 h
[17] = tested on: LNCaP C4-2B; test: Cytotoxicity against human LNCaP C4-2B cells incubated for 48 hrs by MTT assay; format: functional, cell-based
[18] = tested on: MDA-MB-231; test: Cytotoxicity against human MDA-MB-231 cells incubated for 48 hrs by MTT assay; format: functional, cell-based; conditions: MDA-MB-231, 48 h
[19] = tested on: HepG2; test: Cytotoxicity against human HepG2 cells by MTT assay; format: functional, cell-based
[20] = tested on: HCT-116; test: Cytotoxicity against human HCT-116 cells by MTT assay; format: functional, cell-based
[21] = tested on: BGC-823; test: Cytotoxicity against human BGC-823 cells by MTT assay; format: functional, cell-based
[22] = tested on: PANC-1; test: Cytotoxicity against human Panc-1 cells incubated for 48 hrs by MTT assay; format: functional, cell-based; conditions: PANC-1, 48 h
[23] = tested on: HeLa; test: Cytotoxicity against human HeLa cells incubated for 48 hrs by MTT assay; format: functional, cell-based
[24] = tested on: HepG2; test: Cytotoxicity against human HepG2 cells incubated for 48 hrs by MTT assay; format: functional, cell-based; conditions: HepG2, 48 h
[25] = tested on: AGS; test: Cytotoxicity against human AGS cells incubated for 48 hrs by MTT assay; format: functional, cell-based
[26] = tested on: P388; test: Cytotoxicity against mouse P388 cells incubated for 48 hrs by MTT assay; format: functional, cell-based; conditions: P388, 48 h

## CC1(C)O[C@H]2CC(=O)OC[C@]23[C@H]2CC[C@@](C)([C@@H](O[C@H]4O[C@H](CO)[C@@H](O)[C@H](O)[C@H]4O)c4ccoc4)[C@@]4(O[C@@H]4C(=O)O)[C@]2(C)C(=O)C[C@@H]13
[1]
  IC50: 119 µM
[2]
  IC50: 20 µM
[3]
  IC50: 55 µM

## CC1=CC(=O)[C@@H](O)[C@]2(C)[C@H]3[C@@H](O)[C@H](O)[C@@]4(C)OC[C@@]35[C@@H](C[C@@H]12)OC(=O)[C@H](O)[C@]54O
[4]
  IC50: 1300 nM
[5]
  IC50: 24000 nM
[6]
  IC50: 2100 nM
[7]
  IC50: 19000 nM

## COC(=O)[C@@]12OC[C@]34[C@H]([C@@H](O)[C@@H]1O)[C@@]1(C)CC(=O)C(O)=C(C)[C@@H]1C[C@H]3OC(=O)[C@H](OC(=O)C=C(C)C)[C@@H]24
[4]
  IC50: 360 nM
[5]
  IC50: 81 nM
[6]
  IC50: 100 nM
[8]
  IC50: 67 nM
[7]
  IC50: 83 nM

## C[C@H](CO)[C@H]1OC(=O)C=C2[C@@]13O[C@@H]3[C@H]1OC(=O)[C@@]3(C)C[C@@H](O)C[C@@]2(C)[C@@H]13
[9]
  IC50: 1700 nM
[10]
  IC50: 1400 nM
[11]
  IC50: 1400 nM

## C[C@@H]1C(=O)O[C@H]2[C@H](O)[C@]34[C@@H]5OC(=O)[C@]3(O[C@@H]3OC(=O)[C@H](O)[C@@]34[C@H](C(C)(C)C)[C@H]5O)[C@@]12O
[12]
  IC50: 7.5 µM
[13]
  IC50: 17 µM

## C=C1C(=O)O[C@@H]2C3O[C@]3(C)CC/C=C(\C)CC[C@@H]12 (stereo partly specified)
[14]
  IC50: 11 µM
[15]
  IC50: 17000 nM

## CC1(C)O[C@H]2CC(=O)OC[C@]23[C@H]2CC[C@@]4(C)[C@H](c5ccoc5)OC(=O)[C@H]5O[C@]54[C@]2(C)C(=O)C[C@@H]13 [LIMONIN]
[1]
  IC50: 26 µM
[2]
  IC50: 42 µM
[3]
  IC50: 4.3 µM

## CC1(C)CCC[C@]2(C)[C@@H]1CC[C@@]13O[C@@H]1C1=C(CO)C(=O)O[C@]14O[C@@H]4[C@@H]23
[16]
  IC50: > 50 µM
[17]
  IC50: 12 µM
[18]
  IC50: > 50 µM

## CC1(C)O[C@H]2CC(=O)OC[C@]23[C@H]2CC[C@@]4(C)[C@H](C5=CC(=O)OC5O)OC(=O)[C@H]5O[C@]54[C@]2(C)C(=O)C[C@@H]13 (stereo partly specified)
[2]
  IC50: 22 µM

## C/C1=C\CC[C@@]2(C)O[C@H]2[C@H]2OC(=O)C(CNc3ccn(C4OC(CO)[C@H](O)[C@@H]4O)c(=O)n3)[C@@H]2CC1 (stereo partly specified)
[14]
  IC50: 5.2 µM
[15]
  IC50: 240 nM

## CC(C)[C@]1(O)[C@H](O)[C@@H]2O[C@]23[C@]2(O[C@H]2C[C@H]2C4=C(CC[C@@]23C)C(=O)OC4)[C@@H]1O
[19]
  IC50: > 10000 nM
[20]
  IC50: > 10000 nM
[21]
  IC50: > 10000 nM

## CC1(C)O[C@H]2CC(=O)OC[C@]23[C@H]2CC[C@@]4(C)[C@H](C5=CC(O)OC5=O)OC(=O)[C@H]5O[C@]54[C@]2(C)C(=O)C[C@@H]13 (stereo partly specified)
[2]
  IC50: 18 µM

## COC(=O)[C@@]12OC[C@]34[C@H]([C@@H](O)[C@@H]1O)[C@@]1(C)C=C(O[C@@H]5O[C@H](CO)[C@@H](O)[C@H](O)[C@H]5O)C(=O)[C@@H](C)[C@@H]1C[C@H]3OC(=O)[C@H](OC(=O)/C=C(\C)C(C)C)[C@@H]24
[4]
  IC50: > 10000 nM
[6]
  IC50: > 10000 nM

## C/C1=C\CC[C@@]2(C)O[C@H]2[C@H]2OC(=O)C(CNC(Cc3ccc(N(CCCl)CCCl)cc3)C(=O)O)[C@@H]2CC1 (stereo partly specified)
[14]
  IC50: 1.8 µM
[15]
  IC50: 260 nM

## C[C@H](CO)[C@H]1OC(=O)C=C2[C@@]13O[C@@H]3[C@H]1OC(=O)[C@@]3(C)[C@@H](O)CC[C@@]2(C)[C@@H]13
[9]
  IC50: 4600 nM
[10]
  IC50: 4000 nM
[11]
  IC50: 1100 nM

## C[C@H](CO[C@@H]1O[C@H](CO)[C@@H](O)[C@H](O)[C@H]1O)[C@H]1OC(=O)C=C2[C@@]13O[C@@H]3[C@H]1OC(=O)[C@@]3(C)[C@@H](O)CC[C@@]2(C)[C@@H]13
[9]
  IC50: > 50000 nM
[10]
  IC50: > 50000 nM
[11]
  IC50: > 50000 nM

## CC(C)[C@H]1OC(=O)C=C2[C@@]13O[C@@H]3[C@H]1OC(=O)[C@@]3(C)C[C@@H](O)C[C@@]2(C)[C@@H]13
[22]
  IC50: > 40 µM
[9]
  IC50: 210 nM
[10]
  IC50: 430 nM
[23]
  IC50: 600 nM
[18]
  IC50: > 40 µM
[11]
  IC50: 570 nM
[24]
  IC50: 3.1 µM
[25]
  IC50: 1400 nM

## CC(C)[C@]12O[C@H]1[C@@H]1O[C@]13[C@]1(O[C@H]1C[C@H]1C4=C(C(=O)OC4)[C@@H](O)C[C@@]13C)[C@@H]2O [TRIPDIOLIDE]
[19]
  IC50: 1700 nM
[20]
  IC50: 730 nM
[21]
  IC50: 910 nM

## COC(=O)[C@@]12OC[C@]34[C@H]([C@@H](O)[C@@H]1O)[C@@]1(C)CC(=O)C(O)=C(C)[C@@H]1C[C@H]3OC(=O)[C@H](OC(=O)/C=C(\C)C(C)(C)OC(C)=O)[C@@H]24
[5]
  IC50: 88 nM
[8]
  IC50: 50 nM
[7]
  IC50: 63 nM

## COC(=O)[C@@]12OC[C@]34[C@H]([C@@H](O)[C@@H]1O)[C@@]1(C)C=C(O[C@@H]5O[C@H](CO)[C@@H](O)[C@H](O)[C@H]5O)C(=O)[C@@H](C)[C@@H]1C[C@H]3OC(=O)[C@H](OC(=O)CC(C)C)[C@@H]24
[4]
  IC50: > 100000 nM
[5]
  IC50: > 50000 nM
[6]
  IC50: > 100000 nM
[7]
  IC50: > 50000 nM

## C[C@@H]1C(=O)O[C@H]2C[C@@]34[C@H]5C[C@@H](C(C)(C)C)[C@]36[C@@H](OC(=O)[C@@H]6O)O[C@@]4(C(=O)O5)[C@]21O [GINKGOLIDE A]
[12]
  IC50: 0.58 µM
[13]
  IC50: 0.94 µM

## COC(=O)[C@@]12OC[C@]34[C@H]([C@@H](O)[C@@H]1O)[C@@]1(C)CC(=O)C(O)=C(C)[C@@H]1C[C@H]3OC(=O)[C@H](OC(C)=O)[C@@H]24 [BRUCEINE B]
[8]
  IC50: 99 nM

## CC1=C2C(=C[C@H]3[C@]4(C)CCCC(C)(C)[C@H]4CC[C@]34O[C@H]24)OC1=O
[16]
  IC50: > 50 µM
[17]
  IC50: 10 µM
[18]
  IC50: > 50 µM

## C[C@H](CO)[C@H]1OC(=O)C=C2[C@@]3(C)[C@H](O)CC[C@]4(C)C(=O)O[C@H]([C@H]5O[C@@]251)[C@H]34
[26]
  IC50: 2100 nM

## CC(C)[C@H]1OC(=O)C=C2[C@@]13O[C@@H]3[C@H]1OC(=O)[C@@]3(C)CCC[C@@]2(C)[C@@H]13
[26]
  IC50: 240 nM

## CC1(C)CCC[C@]2(C)[C@@H]1CC[C@@]13O[C@@H]1C1=C(CO)C(=O)OC1=C[C@@H]23
[16]
  IC50: 13 µM
[17]
  IC50: 2.2 µM
[18]
  IC50: 8.8 µM
